This note sets out measurements from paper PMC7005262, “Complete structure of the chemosensory array core signalling unit in an E. coli minicell strain” (Nature Communications, 2020).

The experiment has as its target T1, Tsr (Escherichia coli, UniProt P02942).
T1 construct: mixed adaptational modification states, CheR and CheB present; read-out by plasmid-borne CheY-YFP/CheZ-CFP
Kind of experiment: in vivo FRET kinase assay (CheY-YFP/CheZ-CFP), inhibition of receptor-coupled CheA activity, multi-site Hill fit. The class given is cell-based. Particulars: intact WM4196 minicells, motility buffer pH 7.0, adaptation enzymes CheR and CheB present; attractant at the periplasmic domain; read-out: K1/2.

T1 sequence (P02942 whole entry): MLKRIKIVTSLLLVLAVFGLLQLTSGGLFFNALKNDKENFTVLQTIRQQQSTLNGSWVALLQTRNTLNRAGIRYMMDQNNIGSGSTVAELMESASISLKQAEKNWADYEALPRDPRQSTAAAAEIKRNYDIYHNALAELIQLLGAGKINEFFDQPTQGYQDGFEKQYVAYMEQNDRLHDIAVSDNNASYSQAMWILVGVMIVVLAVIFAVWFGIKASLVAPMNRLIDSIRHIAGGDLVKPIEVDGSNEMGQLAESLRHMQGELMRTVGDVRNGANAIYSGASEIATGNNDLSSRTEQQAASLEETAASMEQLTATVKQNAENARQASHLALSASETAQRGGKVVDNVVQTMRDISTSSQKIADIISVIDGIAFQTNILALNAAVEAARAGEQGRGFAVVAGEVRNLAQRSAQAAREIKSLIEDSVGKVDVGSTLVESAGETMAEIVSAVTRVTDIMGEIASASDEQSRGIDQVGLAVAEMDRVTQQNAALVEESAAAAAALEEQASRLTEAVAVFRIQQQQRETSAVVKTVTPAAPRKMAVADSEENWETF

For `N[C@@H](CO)C(=O)O` [serine], the EC50 stood at 0.4 µM.
